Counter-ions that a name gives are not always drawn.
Assay: SKIN-CAD simulation of ketotifen fumarate concentration profile in conjunctiva
Parameters: species or system rabbit
Conditions: simulation parameter
Source text: The above data were fed into SKIN-CAD (Biocom Systems, Inc., Fukuoka, Japan), a software for analysis of skin permeation of drugs, together with the parameters for hairless mouse skin permeation and parameters for rabbit tear fluid kinetics, to simulate a ketotifen fumarate concentration profile in rabbit's conjunctiva.
According to references, the rate of uptake of absorbed drugs by the subvascular tissues in normal capillary vessels is around 3-5% (K. Tojo, Mathematical models of transdermal and topical drug delivery, 2nd edition, Biocom Systems, Fkuoka, Japan, 2005), and the above transfer rate of 3% (i.e., the rate of uptake into the tear fluid) almost agrees with this. Based on this rate of uptake (3%), the profile of drug concentration in the conjunctiva was simulated again, this time on the assumption that the solid pharmaceutical preparation was rubbed on the skin only once, not ten times, by replacing the parameter for drug thickness in SKIN-CAD with 1/10 of the value in the above test, i.e., with 0.005 cm.
As to the concentration of the drug in the conjunctiva, the results of the above test where the solid pharmaceutical preparation was applied (Table 10, 10 times application) and a graph produced by SKIN-CAD in agreement with the results, the data after the above topical instillation (Table 13), and the result of the simulation by SKIN-CAD where the solid pharmaceutical preparation was rubbed only once (1 time application) are shown together in FIG. 9.

[1] = rabbit tear fluid pharmacokinetics

For `CN1CCC(=C2c3ccccc3CC(=O)c3sccc32)CC1` [ketotifen fumarate], the “Absorption Rate Constant into Blood” value was 0.04 s⁻¹, the “Device/Skin Partition Coefficient” value (device design) was 5.80 × 10^−2 and the “Diffusion Coefficient in Device” value (device design) was 1.97 × 10^−9 cm^2/sec. For the same molecule, the “Diffusion Coefficient in Stratum Corneum” value (hairless mouse skin permeation) was 1.12 × 10^−11 cm^2/sec, the “Diffusion Coefficient in Viable Skin” value (hairless mouse skin permeation) was 3.75 × 10^−7 cm^2/sec and the “Stratum Corneum/Viable Skin Partition Coefficient” value (hairless mouse skin permeation) was 2.47 × 10^2. For the same molecule, the “Elimination Rate Constant, K10” value [1] was 0.00385 s⁻¹ and the “Volume of Distribution, V1” value [1] was 0.008 mL.
